# Results from article PMC6990405, “Synthesis and Structure–Activity relationship of 1-(5-isoquinolinesulfonyl)piperazine analogues as inhibitors of Mycobacterium tuberculosis IMPDH” (European Journal of Medicinal Chemistry, 2019).
# System: M. tuberculosis SRMV2.6 (IMPDH Tyr487Cys)
# Assay type: cell-based, Mycobacterium tuberculosis
# Settings: not given
SMILES,MIC90 against SRMV2.6,fold more active against SRMV2.6 than wild-type M. tuberculosis
"O=C(NCCNS(=O)(=O)c1cccc2cnccc12)C1CCCCC1 [Compound 2, N-{2-[(isoquinoline-5-sulfonyl)amino]ethyl}cyclohexanecarboxamide]",>250 µM,
"CC1CN(S(=O)(=O)c2cccc3cnccc23)CCN1C(=O)C1CCCCC1 (centres unmarked) [Compound 3, Cyclohexyl[4-(isoquinoline-5-sulfonyl)-2-methylpiperazin-1-yl]methanone]",100 µM,
"O=C(NC1CCN(S(=O)(=O)c2cccc3cnccc23)CC1)C1CCCCC1 [Compound 4, N-[1-(isoquinoline-5-sulfonyl)piperidin-4-yl]cyclohexanecarboxamide]",>100 µM,
"O=C(C1CCCCC1)N1CCC(NS(=O)(=O)c2cccc3cnccc23)CC1 [Compound 5, N-[1-(cyclohexanecarbonyl)piperidin-4-yl]isoquinoline-5-sulfonamide]",>100 µM,
"Cc1cc2c(S(=O)(=O)N3CCN(C(=O)C4CCCCC4)CC3)cccc2cn1 [Compound 6, Cyclohexyl[4-(3-methylisoquinoline-5-sulfonyl)piperazin-1-yl]methanone]",>100 µM,
"O=C(C1CCCCC1)N1CCN(S(=O)(=O)c2cccc3ccccc23)CC1 [Compound 7, Cyclohexyl[4-(naphthalene-1-sulfonyl)piperazin-1-yl]methanone]",>100 µM,
"O=C(C1CCCCC1)N1CCN(S(=O)(=O)c2ccc3ccccc3c2)CC1 [Compound 8, Cyclohexyl[4-(naphthalene-2-sulfonyl)piperazin-1-yl]methanone]",>100 µM,
"O=C(NCCNS(=O)(=O)c1cccc2cnccc12)C1CC1 [Compound 9, N-{2-[(isoquinoline-5-sulfonyl)amino]ethyl}cyclopropanecarboxamide]",100 µM,
"O=C(NCCNS(=O)(=O)c1cccc2cnccc12)C1CCC1 [Compound 10, N-{2-[(isoquinoline-5-sulfonyl)amino]ethyl}cyclobutanecarboxamide]",100 µM,
"CC(C)(C)C(=O)N1CCN(S(=O)(=O)c2cccc3cnccc23)CC1 [Compound 11, 1-[4-(isoquinoline-5-sulfonyl)piperazin-1-yl]-2,2-dimethylpropan-1-one]",100 µM,
"CC1(C(=O)N2CCN(S(=O)(=O)c3cccc4cnccc34)CC2)CCCCC1 [Compound 12, [4-(isoquinoline-5-sulfonyl)piperazin-1-yl](1-methylcyclohexyl)methanone]",>250 µM,
"O=C(c1ccccc1)N1CCN(S(=O)(=O)c2cccc3cnccc23)CC1 [Compound 15, [4-(isoquinoline-5-sulfonyl)piperazin-1-yl](phenyl)methanone]",>100 µM,
"N#Cc1cccc(C(=O)N2CCN(S(=O)(=O)c3cccc4cnccc34)CC2)c1 [Compound 16, 3-[4-(isoquinoline-5-sulfonyl)piperazine-1-carbonyl]benzonitrile]",50 µM,
"N#Cc1ccc(C(=O)N2CCN(S(=O)(=O)c3cccc4cnccc34)CC2)cc1 [Compound 17, 4-[4-(isoquinoline-5-sulfonyl)piperazine-1-carbonyl]benzonitrile]",100 µM,
"O=C(c1cc([N+](=O)[O-])cc([N+](=O)[O-])c1)N1CCN(S(=O)(=O)c2cccc3cnccc23)CC1 [Compound 19, [4-(isoquinoline-5-sulfonyl)piperazin-1-yl](3,5-dinitrophenyl)methanone]",100 µM,
"COc1cc(C(=O)N2CCN(S(=O)(=O)c3cccc4cnccc34)CC2)cc(OC)c1OC [Compound 20, [4-(isoquinoline-5-sulfonyl)piperazin-1-yl](3,4,5-trimethoxyphenyl)methanone]",>125 µM,
"O=C(NCCNS(=O)(=O)c1cccc2cnccc12)c1cc([N+](=O)[O-])cc([N+](=O)[O-])c1 [Compound 21, N-{2-[(isoquinoline-5-sulfonyl)amino]ethyl}-3,5-dinitrobenzamide]",3.9 µM,4 fold
"O=C(CC1CCC2(CC1)OCCO2)N1CCN(S(=O)(=O)c2cccc3cnccc23)CC1 [Compound 23, 2-(1,4-dioxaspiro[4.5]decan-8-yl)-1-[4-(isoquinoline-5-sulfonyl)piperazin-1-yl]ethan-1-one]",>250 µM,
"N#Cc1cccc(CC(=O)N2CCN(S(=O)(=O)c3cccc4cnccc34)CC2)c1 [Compound 24, 3-{2-[4-(isoquinoline-5-sulfonyl)piperazin-1-yl]-2-oxoethyl}benzonitrile]",>250 µM,
"O=C(Cc1cccc(O)c1)N1CCN(S(=O)(=O)c2cccc3cnccc23)CC1 [Compound 25, 2-(3-hydroxyphenyl)-1-[4-(isoquinoline-5-sulfonyl)piperazin-1-yl]ethan-1-one]",>250 µM,

SMILES,MIC90 against SRMV2.6,fold more active against SRMV2.6 than wild-type M. tuberculosis
"COc1cccc(CC(=O)N2CCN(S(=O)(=O)c3cccc4cnccc34)CC2)c1 [Compound 26, 1-[4-(isoquinoline-5-sulfonyl)piperazin-1-yl]-2-(3-methoxyphenyl)ethan-1-one]",>250 µM,
"COc1ccc(CC(=O)N2CCN(S(=O)(=O)c3cccc4cnccc34)CC2)c(OC)c1 [Compound 27, 1-[4-(isoquinoline-5-sulfonyl)piperazin-1-yl]-2-(2,4-dimethoxyphenyl)ethan-1-one]",>250 µM,
"Cc1cccc(CC(=O)N2CCN(S(=O)(=O)c3cccc4cnccc34)CC2)c1 [Compound 28, 1-(4-(isoquinolin-5-ylsulfonyl)piperazin-1-yl)-2-(m-tolyl)ethan-1-one]",>250 µM,
"O=C(Cc1ccc(F)cc1)N1CCN(S(=O)(=O)c2cccc3cnccc23)CC1 [Compound 29, 2-(4-fluorophenyl)-1-(4-(isoquinolin-5-ylsulfonyl)piperazin-1-yl)ethan-1-one]",>100 µM,
"O=C(Cc1ccc([N+](=O)[O-])cc1)N1CCN(S(=O)(=O)c2cccc3cnccc23)CC1 [Compound 30, 1-(4-(isoquinolin-5-ylsulfonyl)piperazin-1-yl)-2-(4-nitrophenyl)ethan-1-one]",>250 µM,
"N#Cc1cccc(NC(=O)N2CCN(S(=O)(=O)c3cccc4cnccc34)CC2)c1 [Compound 31, N-(3-cyanophenyl)-4-(isoquinolin-5-ylsulfonyl)piperazine-1-carboxamide]",31.2 µM,
"O=C(Nc1cccc(C(F)(F)F)c1)N1CCN(S(=O)(=O)c2cccc3cnccc23)CC1 [Compound 32, 4-(isoquinolin-5-ylsulfonyl)-N-(3-(trifluoromethyl)phenyl)piperazine-1-carboxamide]",125 µM,
"O=C(Nc1ccc(Cl)cc1)N1CCN(S(=O)(=O)c2cccc3cnccc23)CC1 [Compound 33, N-(4-chlorophenyl)-4-(isoquinolin-5-ylsulfonyl)piperazine-1-carboxamide]",>250 µM,
"O=C(Nc1ccc(Cl)c(C(F)(F)F)c1)N1CCN(S(=O)(=O)c2cccc3cnccc23)CC1 [Compound 34, N-(4-chloro-3-(trifluoromethyl)phenyl)-4-(isoquinolin-5-ylsulfonyl)piperazine-1-carboxamide]",50 µM,
"O=C(Nc1ccc(Cl)c([N+](=O)[O-])c1)N1CCN(S(=O)(=O)c2cccc3cnccc23)CC1 [Compound 35, N-(4-chloro-3-nitrophenyl)-4-(isoquinolin-5-ylsulfonyl)piperazine-1-carboxamide]",>100 µM,
"O=C(Nc1ccc(F)c(Cl)c1)N1CCN(S(=O)(=O)c2cccc3cnccc23)CC1 [Compound 36, N-(3-chloro-4-fluorophenyl)-4-(isoquinolin-5-ylsulfonyl)piperazine-1-carboxamide]",62.5 µM,
"O=C(Nc1cccc(Cl)c1Cl)N1CCN(S(=O)(=O)c2cccc3cnccc23)CC1 [Compound 37, N-(2,3-dichlorophenyl)-4-(isoquinolin-5-ylsulfonyl)piperazine-1-carboxamide]",>250 µM,
"Cc1ccc(NC(=O)N2CCN(S(=O)(=O)c3cccc4cnccc34)CC2)cc1Cl [Compound 38, N-(3-chloro-4-methylphenyl)-4-(isoquinolin-5-ylsulfonyl)piperazine-1-carboxamide]",100 µM,
"Cc1ccc(NC(=O)N2CCN(S(=O)(=O)c3cccc4cnccc34)CC2)c([N+](=O)[O-])c1 [Compound 39, 4-(isoquinolin-5-ylsulfonyl)-N-(4-methyl-2-nitrophenyl)piperazine-1-carboxamide]",25 µM,
"Cc1cccc(Cl)c1NC(=O)N1CCN(S(=O)(=O)c2cccc3cnccc23)CC1 [Compound 40, N-(2-chloro-6-methylphenyl)-4-(isoquinolin-5-ylsulfonyl)piperazine-1-carboxamide]",>250 µM,
"O=C(Nc1ccc2c(c1)OCO2)N1CCN(S(=O)(=O)c2cccc3cnccc23)CC1 [Compound 41, N-(benzo[d][1,3]dioxol-5-yl)-4-(isoquinolin-5-ylsulfonyl)piperazine-1-carboxamide]",>100 µM,
"O=S(=O)(c1cccc2cnccc12)N1CCN(C(=S)Nc2ccc3c(c2)OCO3)CC1 [Compound 42, N-(benzo[d][1,3]dioxol-5-yl)-4-(isoquinolin-5-ylsulfonyl)piperazine-1-carbothioamide]",>100 µM,
"O=C(Nc1ccc2c(c1)OCO2)N1CCC(NS(=O)(=O)c2cccc3cnccc23)CC1 [Compound 43, 4-[(isoquinoline-5-sulfonyl)amino]-N-(2H-1,3-benzodioxol-5-yl)piperidine-1-carboxamide]",>100 µM,
"O=C(OCc1ccccc1)N1CCN(S(=O)(=O)c2cccc3cnccc23)CC1 [Compound 49, Benzyl 4-(isoquinolin-5-ylsulfonyl)piperazine-1-carboxylate]",100 µM,

# System: M. tuberculosis guaB2 cKD mutant
# Assay type: cell-based
# Settings: increase in potency against guaB2 cKD mutant upon guaB2 silencing
row,SMILES,Hyper-sensitivity to guaB2 cKD
1,"COc1cccc(CNC(=O)N2CCN(S(=O)(=O)c3cccc4cnccc34)CC2)c1 [Compound 47, 4-(isoquinolin-5-ylsulfonyl)-N-(3-methoxybenzyl)piperazine-1-carboxamide]",8-fold
